Positions of bridges follow the written chain, without caps; N, C: chain ends. Non-standard residues stand in square brackets, D forms with d. Residues, ends and D or L forms follow the SMILES beside them.
Tests used:
[1] = tested on: growth hormone release from rat pituitary cells; assay: in vitro test for the inhibition of growth hormone release, cultured rat pituitary cells; format: cell-based; settings: multiple or fraction of the effect of somatostatin (=1), fiducial limits in parentheses, 4 hours incubation
Experimental: The instant cyclic hexapeptide analogs of somatostatin are tested and compared with the effects of somatostatin in an in vitro test for the inhibition of growth hormone. The test is described as follows:
"Rat pituitaries were isolated according to the procedures of Vale and Grant `In Vitro Pituitary Hormone Secretion Assay for Hypophysiotropic Substances` in Methods in Enzymology. Vol. XXXVII, eds. O'Malley, B. W. and Hardman, J. G. (Academic Press, Inc., New York) pp. 5-93 (1975).
After 4 days in culture, the cells were washed and incubated for 4 hours in Dulbecco-modified Eagle's medium in the presence or absence of graded doses of each analog or somatostatin. The medium was then collected for subsequent growth hormone determination by a double antibody radioimmunoassay for rat growth hormone."

[2] = tested on: portal vein insulin; assay: decrease of portal vein insulin levels in anesthetized rats; format: in vivo, rat; settings: multiple or fraction of the effect of somatostatin (=1), fiducial limits in parentheses, external jugular vein, portal vein blood after 5 minutes
Experimental: (§1) Analogs of somatostatin were compared to somatostatin in their ability to decrease the levels of portal vein glucagon and insulin in anesthetized rats. Male Sprague-Dawley rats (Charles River CD) weighing 160-200 g were anesthetized with urethane (150 mg/100 g of body weight; Aldrich). Saline or peptides were adminstered via the external jugular vein. After 5 minutes, the portal vein was exposed, and blood was collected via syringe containing 3 mg of EDTA and placed in chilled tubes containing 100 μl of Trasylol (FBA Pharmaceuticals) for subsequent hormone analysis. Plasma levels of glucagon were determined by the method of Faloona and Unger, Methods of Hormone Radioimmunoassay, Jaffe and Behrman (Eds), Academic Press, New York, Vol. II, pp. 257-527 (1976), utilizing glucagon antisera 30K obtained from R. Unger (Dallas, TX). Plasma levels of insulin were determined by a modification of the procedure of Herbert et al., J. Clin. Endocrinol. Metab., 25, 1375-1384 (1965).

[3] = stability of the isolated peptide with respect to polymerization; format: physicochemical
Experimental: In order to stabilize the compound toward such decomposition it was treated in aqueous solution with 10-40 mole % of N-ethylmaleimide, a reagent which will react with free sulfhydryl groups that could catalyze disulfide interchange. The excess N-ethyl maleimide was separated by passage through a column of Sephadex G-25 gel (superfine) eluted with 50% acetic acid.

[4] = tested on: portal vein glucagon; assay: decrease of portal vein glucagon levels in anesthetized rats; format: in vivo, rat; settings: relative to somatostatin (=1), external jugular vein, portal vein blood after 5 minutes
Experimental: as §1

SMILES	Growth Hormone Release Inhibition [1]	Insulin Inhibition [2]	stability with respect to polymerization ([3]; after treatment with 10-40 mole % of N-ethylmaleimide and reisolation)	stability with respect to polymerization ([3]; sample as isolated, in certain solvents or on extended storage)	Glucagon Inhibition [4]
C[C@@H](O)[C@@H]1NC(=O)[C@H](CCCCN)NC(=O)[C@@H](Cc2c[nH]c3ccccc23)NC(=O)[C@H](Cc2ccccc2)NC(=O)[C@@H]2CSSC[C@H](NC1=O)C(=O)N2 (cyclo(CCF[dW]KT); disulfide 1-2)	2.47(1.66-3.81)	10.6(5.5-19.9)	completely stable	unstable	Active
C[C@H](N)C(=O)NCC(=O)N[C@H]1CSSC[C@@H](C(=O)O)NC(=O)[C@H](CO)NC(=O)[C@H]([C@@H](C)O)NC(=O)[C@H](Cc2ccccc2)NC(=O)[C@H]([C@@H](C)O)NC(=O)[C@H](CCCCN)NC(=O)[C@H](Cc2c[nH]c3ccccc23)NC(=O)[C@H](Cc2ccccc2)NC(=O)[C@H](Cc2ccccc2)NC(=O)[C@H](CC(N)=O)NC(=O)[C@H](CCCCN)NC1=O [Somatostatin]	–	–	–	–	1
